{"source": "ChEMBL document CHEMBL5325400", "about": "(Eur J Med Chem, 2023)", "key": {"A549 [1]": {"system": "A549", "experiment": "Antitumor activity against human A549 cells xenografted in BALB/c mouse assessed as tumor weight at 10 mg/kg, ip administered every other day for 25 days", "assay_type": "functional, organism-based", "details": "time 25.0 day"}, "[2]": {"experiment": "Clearance in Sprague-Dawley rat at 1 mg/kg, iv by LC-MS analysis", "assay_type": "ADME, organism-based", "details": "in vivo"}, "[3]": {"experiment": "Half life in Sprague-Dawley rat at 1 mg/kg, iv by LC-MS analysis", "assay_type": "ADME, organism-based", "details": "in vivo"}, "A549 [4]": {"system": "A549", "experiment": "Antiproliferative activity against human A549 cells assessed as inhibition of cell growth measured after 48 hrs by MTT assay", "assay_type": "functional, cell-based", "details": "A549, 48 h"}, "A549 [5]": {"system": "A549", "experiment": "Inhibition of cell migration in human A549 cells assessed as total number of cells migrated at 5 nM incubated for 12 hrs by crystal violet staining based transwell assay (reference value: 724 +/- 16)", "assay_type": "functional"}, "[6]": {"experiment": "Toxicity in BALB/c nude mouse xenografted with human A549 cells assessed as pathological changes in lung at 5 to 10 mg/kg, ip administered every other day for 25 days by hematoxylin and eosin staining based microscopic analysis", "assay_type": "organism-based", "details": "in vivo, 600 h, dose 5-10 mg/kg, time 25 day"}, "A549 [7]": {"system": "A549", "experiment": "Induction of apoptosis in human A549 cells assessed as viable cells at 20 nM incubated for 24 hrs by annexin V-FITC/propidium iodide staining based flow cytometry analysis (reference value: 96.44%)", "assay_type": "functional", "details": "read-out: Activity"}, "A549 [8]": {"system": "A549", "experiment": "Inhibition of colony formation in human A549 cells incubated for 6 days by crystal violet staining based analysis", "assay_type": "functional, cell-based", "details": "dose 1-20 nM, time 6.0 day"}, "A549 [9]": {"system": "A549", "experiment": "Induction of cell cycle arrest in human A549 cells assessed as accumulation at G2 phase at 20 nM incubated for 24 hrs by PI staining based flow cytometry (Rvb= 12.49%)", "assay_type": "functional"}, "[10]": {"experiment": "AUC(0 to infinity) in Sprague-Dawley rat at 1 mg/kg, iv by LC-MS analysis", "assay_type": "ADME, organism-based", "set-up": "dose 1 mg/kg, route iv", "details": "in vivo"}, "A549 [11]": {"system": "A549", "experiment": "Residual cell migration in human A549 cells at 20 nM incubated for 12 hrs by crystal violet staining based transwell assay", "details": "A549, 12 h"}, "[12]": {"experiment": "Toxicity in BALB/c nude mouse xenografted with human A549 cells assessed as pathological changes in liver at 5 to 10 mg/kg, ip administered every other day for 25 days by hematoxylin and eosin staining based microscopic analysis", "assay_type": "organism-based", "details": "in vivo, 600 h, dose 5-10 mg/kg, time 25 day"}, "A549 [13]": {"system": "A549", "experiment": "Antimigratory activity against human A549 cells assessed as inhibition of cell migration at 10 nM and incubated for 12 hrs by scratch wound healing assay (reference value: 29.5 +/- 1.34%)", "assay_type": "functional", "set-up": "scale not given: the % may be the effect or the level left"}, "A549 [14]": {"system": "A549", "experiment": "Antiproliferative activity against human A549 cells expressing lentivirus RNAi VTI-96660 assessed as inhibition of cell growth measured after 48 hrs by MTT assay", "assay_type": "functional, cell-based"}, "A549 [15]": {"system": "A549", "experiment": "Induction of cell cycle arrest in human A549 cells assessed as accumulation at S phase at 10 nM incubated for 24 hrs by PI staining based flow cytometry (Rvb= 20.94%)", "assay_type": "functional"}, "A549 [16]": {"system": "A549", "experiment": "Inhibition of colony formation in human A549 cells at 20 nM incubated for 6 days by crystal violet staining based analysis", "assay_type": "functional, cell-based", "details": "time 6.0 day"}, "A549 [17]": {"system": "A549", "experiment": "Antitumor activity against human A549 cells xenografted in BALB/c mouse assessed as upregulation of cleaved PARP expression in tumor at 10 mg/kg, ip administered every other day for 25 days by Western blotting analysis", "assay_type": "functional, organism-based", "details": "time 25.0 day"}, "B16-F10 [18]": {"system": "B16-F10", "experiment": "Antimigratory activity against mouse B16-F10 cells assessed as inhibition of cell migration at 10 nM and incubated for 12 hrs by scratch wound healing assay (reference value: 81.9 +/- 0.64%)", "assay_type": "functional", "set-up": "scale not given: the % may be the effect or the level left"}, "A549 [19]": {"system": "A549", "experiment": "Induction of apoptosis in human A549 cells assessed as necrotic cells at 40 nM incubated for 24 hrs by annexin V-FITC/propidium iodide staining based flow cytometry analysis (reference value: 2.36%)", "assay_type": "functional"}, "B16-F10 [20]": {"system": "B16-F10", "experiment": "Inhibition of cell migration in mouse B16-F10 cells assessed as total number of cells migrated at 40 nM incubated for 12 hrs by crystal violet staining based transwell assay (reference value: 692 +/- 11)", "assay_type": "functional"}, "A549 [21]": {"system": "A549", "experiment": "Antitumor activity against human A549 cells xenografted in BALB/c mouse assessed as tumor volume at 5 mg/kg, ip administered every other day for 25 days", "assay_type": "functional", "details": "time 25 day"}, "A549 [22]": {"system": "A549", "experiment": "Induction of apoptosis in human A549 cells assessed as downregulation of Bcl-2 protein at 10 to 40 nM measured after 48 hrs by Western blot analysis", "assay_type": "functional, cell-based", "details": "dose 10-40 nM"}, "A549 [23]": {"system": "A549", "experiment": "Induction of apoptosis in human A549 cells assessed as early apoptotic cells at 40 nM incubated for 24 hrs by annexin V-FITC/propidium iodide staining based flow cytometry analysis (reference value: 0.84%)", "assay_type": "functional"}, "A549 [24]": {"system": "A549", "experiment": "Inhibition of cell migration in human A549 cells assessed as total number of cells migrated at 10 nM incubated for 12 hrs by crystal violet staining based transwell assay (reference value: 724 +/- 16)", "assay_type": "functional"}, "A549 [25]": {"system": "A549", "experiment": "Induction of cell cycle arrest in human A549 cells assessed as accumulation at S phase at 20 nM incubated for 24 hrs by PI staining based flow cytometry (Rvb= 20.94%)", "assay_type": "functional"}, "A549 [26]": {"system": "A549", "experiment": "Antimigratory activity against human A549 cells assessed as inhibition of cell migration at 40 nM and incubated for 12 hrs by scratch wound healing assay (reference value: 29.5 +/- 1.34%)", "assay_type": "functional", "set-up": "scale not given: the % may be the effect or the level left"}, "A549 [27]": {"system": "A549", "experiment": "Antimigratory activity against human A549 cells assessed as inhibition of cell migration at 20 nM and incubated for 12 hrs by scratch wound healing assay (reference value: 29.5 +/- 1.34%)", "assay_type": "functional", "set-up": "scale not given: the % may be the effect or the level left"}, "B16-F10 [28]": {"system": "B16-F10", "experiment": "Inhibition of cell migration in mouse B16-F10 cells assessed as total number of cells migrated at 20 nM incubated for 12 hrs by crystal violet staining based transwell assay (reference value: 692 +/- 11)", "assay_type": "functional"}, "A2780": {"system": "A2780", "experiment": "cells", "details": "Homo sapiens, A2780, 48 h", "description": "Antiproliferative activity against human A2780 cells assessed as inhibition of cell growth incubated for 48 hrs by MTT assay"}, "A549 [29]": {"system": "A549", "experiment": "Antitumor activity against human A549 cells xenografted in BALB/c mouse assessed as decrease in CD-31 expression in tumor at 10 mg/kg, ip administered every other day for 25 days by immunohistochemistry analysis", "assay_type": "functional, organism-based", "details": "time 25.0 day"}, "A549 [30]": {"system": "A549", "experiment": "Antitumor activity against human A549 cells xenografted in BALB/c mouse assessed as reduction in AKT phosphorylation at S473 residue in tumor at 5 to 10 mg/kg, ip administered every other day for 25 days by Western blotting analysis", "assay_type": "functional, organism-based", "details": "dose 5-10 mg/kg, time 25.0 day"}, "[31]": {"experiment": "Toxicity in BALB/c nude mouse xenografted with human A549 cells assessed as pathological changes in heart at 5 to 10 mg/kg, ip administered every other day for 25 days by hematoxylin and eosin staining based microscopic analysis", "assay_type": "organism-based", "details": "in vivo, 600 h, dose 5-10 mg/kg, time 25 day"}, "A549 [32]": {"system": "A549", "experiment": "Inhibition of cell migration in human A549 cells assessed as total number of cells migrated at 20 nM incubated for 12 hrs by crystal violet staining based transwell assay (reference value: 724 +/- 16)", "assay_type": "functional"}, "B16-F10 [33]": {"system": "B16-F10", "experiment": "Antimigratory activity against mouse B16-F10 cells assessed as inhibition of cell migration at 40 nM and incubated for 12 hrs by scratch wound healing assay (reference value: 81.9 +/- 0.64%)", "assay_type": "functional", "set-up": "scale not given: the % may be the effect or the level left"}, "A549 [34]": {"system": "A549", "experiment": "Antitumor activity against human A549 cells xenografted in BALB/c mouse assessed as downregulation of Bcl-2 expression in tumor at 10 mg/kg, ip administered every other day for 25 days by Western blotting analysis", "assay_type": "functional, organism-based", "details": "time 25.0 day"}}, "note": "pIC50: −log10 of the molar value. The source made the active and inactive calls. The rule behind the calls is not given here."}
{"smiles": "COc1cccc(Nc2cc(Nc3cccc(NC(=O)C4CC4)c3)ncn2)c1", "values": [{"measurement": "Activity", "setting": "A549 [1]", "value": "Active"}, {"measurement": "clearance", "setting": "[2]", "value": 69.8, "unit": "mL/min/kg"}, {"measurement": "t1/2", "setting": "[3]", "value": 13.2, "unit": "min"}, {"measurement": "pIC50", "setting": "A549 [4]", "value": 8.96}, {"measurement": "Activity", "setting": "A549 [5]", "value": 635}, {"measurement": "Activity", "setting": "[6]", "value": "Non-Toxic"}, {"measurement": "viability at 0.02 µM", "setting": "A549 [7]", "value": 76, "unit": "%"}, {"measurement": "inhibition", "setting": "A549 [8]", "value": "Dose-Dependent Effect"}, {"measurement": "Activity", "setting": "A549 [9]", "value": 33.13, "unit": "%"}, {"measurement": "AUC", "setting": "[10]", "value": 239.43, "unit": "ng·h/mL"}, {"measurement": "level, % of control at 0.02 µM", "setting": "A549 [11]", "value": 56.3, "unit": "%"}, {"measurement": "Activity", "setting": "[12]", "value": "Non-Toxic"}, {"measurement": "Activity", "setting": "A549 [13]", "value": 15.8, "unit": "%"}, {"measurement": "Activity", "setting": "A549 [14]", "value": "Active"}, {"measurement": "Activity", "setting": "A549 [15]", "value": 15.3, "unit": "%"}, {"measurement": "inhibition", "setting": "A549 [16]", "value": "Active"}, {"measurement": "Activity", "setting": "A549 [17]", "value": "Active"}, {"measurement": "Activity", "setting": "B16-F10 [18]", "value": 49.9, "unit": "%"}, {"measurement": "Activity", "setting": "A549 [19]", "value": 5.78, "unit": "%"}, {"measurement": "Activity", "setting": "B16-F10 [20]", "value": 221}, {"measurement": "Activity", "setting": "A549 [21]", "value": 42.51, "unit": "%"}, {"measurement": "Activity", "setting": "A549 [22]", "value": "Active"}, {"measurement": "Activity", "setting": "A549 [23]", "value": 3.86, "unit": "%"}, {"measurement": "Activity", "setting": "A549 [24]", "value": 486}, {"measurement": "Activity", "setting": "A549 [25]", "value": 15.49, "unit": "%"}, {"measurement": "Activity", "setting": "A549 [26]", "value": 6.1, "unit": "%"}, {"measurement": "Activity", "setting": "A549 [27]", "value": 9.8, "unit": "%"}, {"measurement": "Activity", "setting": "B16-F10 [28]", "value": 319}, {"measurement": "pIC50", "setting": "A2780", "value": 7.80}, {"measurement": "Activity", "setting": "A549 [29]", "value": "Active"}, {"measurement": "Activity", "setting": "A549 [30]", "value": "inactive"}, {"measurement": "Activity", "setting": "[31]", "value": "Non-Toxic"}, {"measurement": "Activity", "setting": "A549 [32]", "value": 397}, {"measurement": "Activity", "setting": "B16-F10 [33]", "value": 29.1, "unit": "%"}, {"measurement": "Activity", "setting": "A549 [34]", "value": "Active"}]}
